# Measurements as given in patent US10080366B2, “Agent for increasing sugar content in fruit” (RIKEN, priority 2012, dated 2018).
# Several values for one entry are separate records, joined by “and”; a condition that tells them apart may be missing. Identical values can stand only once.
# How the values were obtained:
# [1] = tested on: fruit of grape (variety: Steuben); conditions: 10 g/L
# Method: An agent for increasing a sugar content in a fruit (containing Sorbon T-20 as a spreader/sticker at a final concentration of 200 μL/L) diluted with water to contain potassium hydrogen carbonate at 10 g/L was prepared. The mass of fruit of grape (variety: Steuben) purchased on the market was measured. Then, the prepared agent for increasing a sugar content in a fruit was applied by spraying to the fruit of grape. The fruit of grape was allowed to stand in an air-conditioned greenhouse (temperature: 25° C.), and the mass was measured over time (date of application: Feb. 7, 2011). In addition, as a control, the mass of untreated grape was measured on each of the dates of measurement in the same manner.
# fruits of apple = tested on: fruits of apple
# Method: (§1) An agent for increasing a sugar content in a fruit (containing Sorbon T-20 as a spreader/sticker at a final concentration of 200 μL/L) diluted with water to have a potassium hydrogen carbonate concentration of 10 g/L was prepared. The masses of fruits of apple and cherry tomato purchased on the market were measured. Then, the prepared agent for increasing a sugar content in a fruit was applied by spraying to the fruits. The fruits were allowed to stand still in an air-conditioned greenhouse, and the masses of the apples and cherry tomatoes were measured on the date of application (date of application: Nov. 30, 2011; date of test: Dec. 5, 2011). In addition, as a control, the masses of untreated apples and cherry tomatoes were measured in the same manner.
# (§2) The estimated transpiration ratio (%) was calculated by “the estimated amount (g) of transpiration/the mass (g) before application×100.”
# (§3) The transpiration ratio was calculated by “the estimated transpiration ratio of the target sample (treated by application of potassium hydrogen carbonate or untreated)/the estimated transpiration ratio of the untreated sample.”
# fruits of cherry tomato = tested on: fruits of cherry tomato
# Method: as §1, §2, §3
# Cherry (Sato Nishiki) = conditions: 5 g/L, three times at intervals of 7 days; 28 days after first application
# Text: The water-soaked symptom in cherry is known to be caused by calcium deficiency. In this respect, an investigation was made as to whether or not the degree of occurrence of water-soaked symptom 28 days after the date of the first application was different between untreated cherries and cherries to which an aqueous potassium hydrogen carbonate solution (5 g/L) was applied three times at intervals of 7 days one month before the harvest time. […] The occurrence (%) of water-soaked symptom=the number of cherries in which the water-soaked symptom occurred/the number of cherries tested×100
# [2] = tested on: Lettuce (leaves: Great Lakes); conditions: 5 g/L, three times at intervals of one week
# Text: (§4) To each of the plants shown in Table 16 below, an aqueous potassium hydrogen carbonate solution (5 g/L for lettuce and 10 g/L for the other plants) was applied three times at intervals of one week from one month before the harvest. The plants were harvested three weeks after the start of the application. Untreated plants not treated with the aqueous potassium hydrogen carbonate solution were harvested at the same time. After the harvest, the total amount of amino acids in each sample was determined, and the ratio of the total amount of amino acids in the plant treated with potassium hydrogen carbonate to the total amount of amino acids in the untreated plant was determined.
# [3] = tested on: Wheat (grains: Norin No. 61); conditions: 10 g/L, three times at intervals of one week
# Text: as §4
structure (smiles),measurement,setting,value
"O=C([O-])O.[K+] [Potassium hydrogen carbonate, potassium hydrogen carbonate]",increase of amount of transpiration in comparison with untreated,[1]; 7 days,approximately 25%
same,water lost per 100 g of grape,"[1]; 7 days, decrease in mass assumed to be transpiration",approximately 25 ml
same,"mass of fruit per 100 g on date of application, 1 day later",[1]; Feb. 8,96.2 g
same,"mass of fruit per 100 g on date of application, 2 days later",[1]; Feb. 9,92.1 g
same,"mass of fruit per 100 g on date of application, 3 days later",[1]; Feb. 10,88.6 g
same,"mass of fruit per 100 g on date of application, 7 days later",[1]; Feb. 14,74.9 g
same,sugar content 7 days later (calculated),[1]; assuming 15% on date of application,20.0%
same,Transpiration ratio (treated/untreated),fruits of apple; 10 g/L,1.65
same,Mass (g) on date of test,"fruits of apple; 10 g/L, Dec. 5",263.69 g and 274.65 g
same,Estimated amount (g) of transpiration,"fruits of apple; 10 g/L, Nov. 30 to Dec. 5",9.15 g and 11.66 g
same,Estimated transpiration ratio (%),"fruits of apple; 10 g/L, Nov. 30 to Dec. 5",3.35% and 3.72%
same,Estimated transpiration ratio (average) (%),"fruits of apple; 10 g/L, average of two apples",3.54%
same,Mass (g) before application,fruits of apple; Nov. 30,272.84 g and 286.31 g
same,Transpiration ratio (treated/untreated),fruits of cherry tomato; 10 g/L,1.93
same,Mass (g) on date of test,"fruits of cherry tomato; 10 g/L, Dec. 5",193.30 g
same,Estimated amount (g) of transpiration,"fruits of cherry tomato; 10 g/L, Nov. 30 to Dec. 5",21.75 g
same,Estimated transpiration ratio (%),"fruits of cherry tomato; 10 g/L, Nov. 30 to Dec. 5",10.12%
same,Mass (g) before application,fruits of cherry tomato; Nov. 30,215.05 g
same,Occurrence (%) of water-soaked symptom,Cherry (Sato Nishiki),7%
same,Amino acid concentration ratio (treated/untreated),[2],1.5
same,Amino acid concentration ratio (treated/untreated),[3],1.2
